How the values were obtained:
Assay in all cases: Minimal inhibitory concentration (M.I.C.), agar dilution method
Conditions in all cases: TSA, inoculum 10^7 /ml
[1] = tested on: P. vulgaris IFO 3988; assay type: cell-based, Proteus vulgaris
Text: (§1) (a) Determination of minimal inhibitory concentrations (Tables 1 to 8):
(§2) Procedure: agar dilution method

[2] = tested on: P. vulgaris GN 4413; assay type: cell-based, Proteus vulgaris
Text: as §1, §2

[3] = tested on: C. freundii GN 1706; assay type: cell-based, Citrobacter freundii
Text: as §1, §2

[4] = tested on: C. freundii GN 99; assay type: cell-based, Citrobacter freundii
Text: as §1, §2

[5] = tested on: E. coli 0-111; assay type: cell-based, Escherichia coli
Text: The minimal inhibitory concentrations (M.I.C.) of some representative cephalosporin derivatives of this invention as produced by the procedures described in those examples and the minimal inhibitory concentrations of cephalothin [sodium 7-(2-thienylacetamido)-3-acetoxymethyl-3-cephem-4-carboxylate], cephaloridine [7-(2-thienylacetamido)-3-(1-pyridyl)methyl-3-cephem-4-carboxylic acid betaine] and cefazolin [sodium 7-(1H-tetrazol-1-yl)acetamido-3-(2-methyl-1,3,4-thiadiazol-5-yl)thiomethyl-3-cephem-4-carboxylate], which are among the clinically established and commercially available cephalosporins (as described, for example, in the New England Journal of Medicine 294, 24, 1976 and Journal of Pharmaceutical Science 64, 1899, 1975), both against various bacteria, as well as the therapeutic effects of some respresentative cephalosporin derivatives of this invention and of cephaloridine in infected mice, are shown in tables.
as §1, §2

[6] = tested on: P. rettgeri TN 338; assay type: cell-based, Proteus rettgeri
Text: as §1, §2

[7] = tested on: P. rettgeri GN4733; assay type: cell-based, Proteus rettgeri
Text: as §1, §2

[8] = tested on: P. mirabilis GN 4359; assay type: cell-based, Proteus mirabilis
Text: as §1, §2

[9] = tested on: E. cloacae TN 1282; assay type: cell-based, Enterobacter cloacae
Text: as §1, §2

[10] = tested on: E. coli NIHJ JC-2; assay type: cell-based, Escherichia coli
Text: as §1, §2

[11] = tested on: E. coli T-7; assay type: cell-based, Escherichia coli
Text: as §1, §2

[12] = tested on: P. morganii IFO 3168; assay type: cell-based, Proteus morganii
Text: as §1, §2

[13] = tested on: K. pneumoniae DT; assay type: cell-based, Klebsiella pneumoniae
Text: as §1, §2

[14] = tested on: K. pneumoniae GN 3835; assay type: cell-based, Klebsiella pneumoniae
Text: as §1, §2

[15] = tested on: S. marcescens IFO 12648; assay type: cell-based, Serratia marcescens
Text: as §1, §2

[16] = tested on: S. marcescens TN 24; assay type: cell-based, Serratia marcescens
Text: as §1, §2

[17] = tested on: S. aureus 1840; assay type: cell-based, Staphylococcus aureus
Text: as §1, §2

[18] = tested on: S. aureus 209P; assay type: cell-based, Staphylococcus aureus
Text: as §1, §2

| Compound | minimal inhibitory concentration (M.I.C.) [1] | minimal inhibitory concentration (M.I.C.) [2] | minimal inhibitory concentration (M.I.C.) [3] | minimal inhibitory concentration (M.I.C.) [4] | minimal inhibitory concentration (M.I.C.) [5] | minimal inhibitory concentration (M.I.C.) [6] | minimal inhibitory concentration (M.I.C.) [7] | minimal inhibitory concentration (M.I.C.) [8] | minimal inhibitory concentration (M.I.C.) [9] | minimal inhibitory concentration (M.I.C.) [10] | minimal inhibitory concentration (M.I.C.) [11] | minimal inhibitory concentration (M.I.C.) [12] | minimal inhibitory concentration (M.I.C.) [13] | minimal inhibitory concentration (M.I.C.) [14] | minimal inhibitory concentration (M.I.C.) [15] | minimal inhibitory concentration (M.I.C.) [16] | minimal inhibitory concentration (M.I.C.) [17] | minimal inhibitory concentration (M.I.C.) [18] |
| --- | --- | --- | --- | --- | --- | --- | --- | --- | --- | --- | --- | --- | --- | --- | --- | --- | --- | --- |
| CNC(=O)O/N=C(\C(=O)NC1C(=O)N2C(C(=O)[O-])=C(C[n+]3ccc(C(N)=O)cc3)CSC12)c1csc(=N)[nH]1 (stereo not drawn) [Example IV - 2, 7-[2-(2-imino-4-thiazolin-4-yl)-2-methylcarbamoyloximinoacetamido]-3-(4-carbamoylpyridiniummethyl)-3-cephem-4-carboxylate (syn-isomer)] | 0.78 | 12.5 | 1.56 | 0.78 | 0.2 | 0.1 | 0.78 | 1.56 | 3.13 | 0.78 | 6.25 | 0.78 | 0.39 | 1.56 | 3.13 | 3.13 | 3.13 | 3.13 |
| CC(C)NC(=O)O/N=C(\C(=O)NC1C(=O)N2C(C(=O)O)=C(COC(N)=O)CSC12)c1csc(=N)[nH]1 (centres unmarked) [Example II - 17] | 0.39 | 100 | 0.78 | 0.39 | 0.05 | ≤ 0.012 | 0.1 | 0.1 | 6.25 | 0.39 | 3.13 | 1.56 | 0.1 | 0.39 | 6.25 | 25 | 3.13 | 1.56 |
| CNC(=O)O/N=C(\C(=O)NC1C(=O)N2C(C(=O)O)=C(CSc3nc(C)ns3)CSC12)c1csc(=N)[nH]1 (centres unmarked) [Example IV - 8] | 0.39 | 6.25 | 3.13 | 0.78 | 0.39 | ≤ 0.2 | 0.78 | 0.78 | 6.25 | 1.56 | 6.25 | 3.13 | 0.39 | 3.13 | 6.25 | 6.25 | 1.56 | 0.78 |
| CNC(=O)O/N=C(\C(=O)NC1C(=O)N2C(C(=O)O)=C(CSc3nc(CC(=O)O)cs3)CSC12)c1csc(=N)[nH]1 (centres unmarked) [Example IV - 7] | ≤ 0.2 | 50 | 3.13 | 0.78 | ≤ 0.2 | ≤ 0.2 | 0.39 | ≤ 0.2 | 12.5 | 0.78 | 6.25 | 0.78 | ≤ 0.2 | 0.39 | 3.13 | 6.25 | 12.5 | 12.5 |
| CCCNC(=O)O/N=C(\C(=O)NC1C(=O)N2C(C(=O)O)=C(COC(N)=O)CSC12)c1csc(=N)[nH]1 (centres unmarked) [Example II - 13] | 0.39 | 50 | 0.78 | 0.1 | 0.05 | ≤ 0.012 | 0.1 | 0.1 | 6.25 | 0.2 | 1.56 | 3.13 | 0.05 | 0.2 | 6.25 | 25 | 3.13 | 1.56 |
| CNC(=O)O/N=C(\C(=O)NC1C(=O)N2C(C(=O)O)=C(CSc3cnn[nH]3)CSC12)c1csc(=N)[nH]1 (centres unmarked) [Example IV - 9] | 0.39 | 25 | 1.56 | 0.78 | ≤ 0.2 | ≤ 0.2 | 1.56 | 0.39 | 6.25 | 0.78 | 3.13 | 0.78 | ≤ 0.2 | 0.78 | 6.25 | 6.25 | 3.13 | 3.13 |
| CCCNC(=O)O/N=C(\C(=O)NC1C(=O)N2C(C(=O)O)=C(COC(C)=O)CSC12)c1csc(=N)[nH]1 (centres unmarked) [Example II - 12] | 0.39 | 12.5 | 0.78 | 0.39 | 0.024 | ≤ 0.012 | 0.2 | 0.1 | 6.25 | 0.39 | 3.13 | 0.78 | 0.1 | 0.39 | 6.25 | 12.5 | 1.56 | 1.56 |
| Cc1nnc(SCC2=C(C(=O)[O-])N3C(=O)C(NC(=O)Cn4cnnn4)[C@H]3SC2)s1.[Na+] (some centres unmarked) [Cefazolin, sodium 7-(1H-tetrazol-1-yl)acetamido-3-(2-methyl-1,3,4-thiadiazol-5-yl)thiomethyl-3-cephem-4-carboxylate, reference compound] | 3.13 | > 100 | > 100 | 12.5 | 1.56 | ≤ 0.2 | 100 | 6.25 |  | 1.56 | 50 | 100 | 1.56 | 6.25 | > 100 | > 100 | 1.56 | 0.39 |
